Measurements as given in patent US20060223708A1, “Substituted N-[pyrimidin-2-ylmethyl]carboxamides and their use as herbicides and plant growth regulators” (Bayer CropScience GmbH, priority 2005, published 2006).

Key:
Amaranthus retroflexus [1] = experiment: Pre-emergence effect on weeds; format: in vivo; conditions: dosage 1000 g of a.i./ha, scored visually after 3 to 4 weeks
Description: (§1) 1. Pre-Emergence Effect on Weeds
(§2) Seeds of monocotyledonous and dicotyledonous weed plants are placed into sandy loam soil in cardboard pots and covered with soil. The compounds of the invention, formulated as wettable powders or emulsion concentrates, are then applied to the surface of the soil cover in the form of aqueous suspensions or emulsions at an application rate of 600 to 800 l of water/ha (converted), in various dosages. After the treatment, the pots are placed in a greenhouse and kept under good growth conditions for the weeds. After the test plants have emerged, the damage to the plants or the negative effect on the emergence was scored visually after a test period of 3 to 4 weeks by comparison with untreated controls. Here, the compounds according to the invention have excellent activity against a broad spectrum of economically important monocotyledonous and dicotyledonous harmful plants, see Tables A to G.

Setaria viridis [2] = experiment: Pre-emergence effect on weeds; format: in vivo; conditions: dosage 1000 g of a.i./ha, scored visually after 3 to 4 weeks
Description: as §1, §2

Stellaria media = experiment: Pre-emergence effect on weeds; format: in vivo; conditions: dosage 1000 g of a.i./ha, scored visually after 3 to 4 weeks
Description: as §1, §2

Lolium multiflorum [3] = experiment: Pre-emergence effect on weeds; format: in vivo; conditions: dosage 1000 g of a.i./ha, scored visually after 3 to 4 weeks
Description: as §1, §2

Amaranthus retroflexus [4] = experiment: Herbicidal post-emergence effect on harmful plants; format: in vivo; conditions: dosage 1000 g of a.i./ha, rated after 3 to 4 weeks
Protocol: (§3) 2. Herbicidal Post-Emergence Effect on Harmful Plants
(§4) Seeds of monocotyledonous and dicotyledonous harmful plants are placed in sandy loam soil in cardboard pots, covered with soil and cultivated in a greenhouse under good growth conditions. Two to three weeks after sowing, the test plants are treated at the three-leaf stage. The compounds according to the invention, formulated in the form of wettable powders or emulsion concentrates, are sprayed onto the surface of the green parts of the plants at an application rate of 600 to 800 l of water/ha (converted), in various dosages. After the test plants have remained in the greenhouse under optimum growth conditions for 3 to 4 weeks, the effect of the compounds is rated. Here, the compounds according to the invention have excellent activity against a broad spectrum of economically important monocotyledonous and dicotyledonous harmful plants, see Tables H to J.

Cyperus iria = experiment: Herbicidal post-emergence effect on harmful plants; format: in vivo; conditions: dosage 1000 g of a.i./ha, rated after 3 to 4 weeks
Protocol: as §3, §4

Echinochloa crus galli = experiment: Herbicidal post-emergence effect on harmful plants; format: in vivo; conditions: dosage 1000 g of a.i./ha, rated after 3 to 4 weeks
Protocol: as §3, §4

Setaria viridis [5] = experiment: Herbicidal post-emergence effect on harmful plants; format: in vivo; conditions: dosage 1000 g of a.i./ha, rated after 3 to 4 weeks
Protocol: as §3, §4

[6] = Pre-emergence effect on weeds; format: in vivo, Sinapis arvensis; conditions: dosage 1000 g of a.i./ha, scored visually after 3 to 4 weeks
Description: as §1, §2

[7] = Pre-emergence effect on weeds; format: in vivo, Avena fatua; conditions: dosage 1000 g of a.i./ha, scored visually after 3 to 4 weeks
Description: as §1, §2

Lolium multiflorum [8] = experiment: Herbicidal post-emergence effect on harmful plants; format: in vivo; conditions: dosage 1000 g of a.i./ha, rated after 3 to 4 weeks
Protocol: as §3, §4

Structure (SMILES) | Herbicidal effect AMARE (Amaranthus retroflexus [1]) [%] | Herbicidal effect SETVI (Setaria viridis [2]) [%] | Herbicidal effect STEME (Stellaria media) [%] | Herbicidal effect LOLMU (Lolium multiflorum [3]) [%] | Herbicidal effect AMARE (Amaranthus retroflexus [4]) [%] | Herbicidal effect CYPIR (Cyperus iria) [%] | Herbicidal effect ECHCG (Echinochloa crus galli) [%] | Herbicidal effect SETVI (Setaria viridis [5]) [%] | Herbicidal effect SINAL [6] [%] | Herbicidal effect AVESA [7] [%] | Herbicidal effect LOLMU (Lolium multiflorum [8]) [%]
Cc1cc(Oc2cccc(C(F)(F)F)c2)nc(CNC(=O)C2CC2)n1 [Compound 1-206, N-[(4-methyl-6-{(3-trifluoromethyl)phenoxy}pyrimidin-2-yl)methyl]cyclopropanecarboxamide] | 100 | 100 | 100 | 100 |  |  |  |  |  |  | 
Cc1cc(Oc2cccc(C(F)(F)F)c2)nc(CNC(=O)C2CCC2)n1 [Compound 1-505] | 100 | 100 | 100 | 100 |  |  |  |  |  |  | 
Cc1cc(Oc2csc(C(F)(F)F)c2)nc(CNC(=O)C2CC2)n1 [Compound 2-205] | 100 | 100 | 100 |  | 90 | 90 | 90 | 90 | 90 |  | 
CCc1cc(Oc2csc(C(F)(F)F)c2)nc(CNC(=O)C2CC2)n1 [Compound 2-304] | 100 | 100 | 100 |  |  |  |  |  | 100 |  | 
CCc1cc(Oc2ccnc(C(F)(F)F)c2)nc(CNC(=O)C2CC2)n1 [Compound 3-306, N-[(4-ethyl-6-{[2-(trifluoromethyl)pyridin-4-yl]oxy}pyrimidin-2-yl)methyl]cyclopropanecarboxamide] | 100 | 100 |  |  | 90 | 100 | 90 |  | 100 | 100 | 90
Cc1cc(Oc2cc(C(F)(F)F)nn2C)nc(CNC(=O)C2CC2)n1 [Compound 5-206] |  | 100 | 100 | 100 | 90 | 100 | 100 |  | 100 |  | 90
CCc1cc(Oc2cc(C(F)(F)F)nn2C)nc(CNC(=O)C(F)(F)F)n1 [Compound 5-319] |  | 100 | 100 | 100 |  |  |  |  | 100 |  | 
